Data as given in patent US7273846B2, “Selective melanin-concentrating hormone type-1 receptor agonists” (priority 2002, dated 2007).
Residues, ends and D or L forms follow the SMILES beside them.

Experiments:
MCH-1R [1] = molecular target: T1, MCH-1R (Homo sapiens, UniProt Q99705); settings: binding ratio
Description: (§3) For transient expression, COS-7 cells were cultured in Dulbecco's modified Eagle medium (Gibco BRL, Rockville, Md.) with 10% heat inactivated fetal calf serum.
(§4) A suspension of 7×10^6 COS-7 cells were transfected with 20 μg of pCI-neo/MCH-2R plasmid by electroporation and cells were harvested after 60-72 hours. Membranes were prepared from transient and stable transfectants by hypotonic lysis, frozen in liquid nitrogen, and stored at −80° C.
(§5) Assays were optimized with respect to membrane preparations: for CHO/MCH-1R membranes, 1 μg of membranes per well yielded a>6× specific binding window and for COS or CHO MCH-2R membranes, 8 μg of membrane protein yielded a window of about 3×.
(§6) Specific binding is defined as the difference between total binding and non-specific binding conducted in the presence of 500 nM unlabeled hMCH. […] After equilibrating at room temperature for 3 hours, the plates were read in a TopCount (Packard, Meriden, Conn.). IC50 calculations were performed using Prism 3.0 (GraphPad. Software, San Diego, Calif.). The IC50 values were measured in three different experiments.

MCH-1R [2] = molecular target: T1, MCH-1R; experiment: biochemical
Description: as §3, §4, §5, §6

MCH-1R [3] = molecular target: T1, MCH-1R; experiment: Aequorin bioluminescence functional assay, 293AEQ17/MCH-1R cells; assay type: cell-based; parameters: expressed in transfected cells
Description: (§1) The aequorin bioluminescence assay is a reliable test for identifying G-protein-coupled receptors that couple through the G protein subunit family consisting of Gq and G11. Gq and G11 coupling leads to the activation of phospholipase C, mobilization of intracellular calcium, and activation of protein kinase C.
Stable cell lines expressing either the MCH-1R or the MCH-2R and the aequorin reporter protein were used. The assay was performed using a Luminoskan RT luminometer (Labsystems Inc., Gaithersburg, Md.) controlled by custom software written for a Macintosh PowerPC 6100.
(§2) The cells were harvested, washed once in ECB medium, and resuspended to 500,000 cells/mL. 100 μL of cell suspension (corresponding to 5×10^4 cells) was then injected into the test plate containing the hMCH peptides, and the integrated light emission was recorded over 30 seconds, in 0.5-s units. 20 μL of lysis buffer (0.1% final Triton X-100 concentration) was then injected and the integrated light emission recorded over 10 seconds, in 0.5-s units. The “fractional response” values for each well were calculated by taking the ratio of the integrated response to the initial challenge to the total integrated luminescence including the Triton X-100 lysis response.

MCH-2R [4] = molecular target: T2, MCH-2R (Homo sapiens, UniProt Q969V1); experiment: Aequorin bioluminescence functional assay, 293AEQ17/MCH-2R cells; assay type: cell-based; parameters: expressed in transfected cells; MCH-2R Activation %: concentration or dose not given beside the values; settings: human MCH = 100
T2 sequence (Q969V1 whole entry): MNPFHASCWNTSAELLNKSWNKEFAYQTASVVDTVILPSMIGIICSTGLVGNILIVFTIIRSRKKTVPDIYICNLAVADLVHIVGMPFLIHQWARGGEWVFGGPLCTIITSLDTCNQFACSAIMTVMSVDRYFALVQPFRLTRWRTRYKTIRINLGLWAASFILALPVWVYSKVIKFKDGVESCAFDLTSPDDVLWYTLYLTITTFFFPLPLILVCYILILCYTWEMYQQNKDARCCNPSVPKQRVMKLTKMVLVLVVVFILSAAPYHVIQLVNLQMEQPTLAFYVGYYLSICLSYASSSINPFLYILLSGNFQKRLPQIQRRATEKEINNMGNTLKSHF
Text: as §1
Stable cell lines expressing either the MCH-1R or the MCH-2R and the aequorin reporter protein were used.
as §2

MCH-2R [5] = molecular target: T2, MCH-2R; experiment: Radioligand binding assay (SPA), MCH-2R; settings: MCH-2R IC50, [125I]-[Phe13,Tyr19]-hMCH SPA, COS or CHO MCH-2R membranes
Description: as §3, §4, §5, §6

T1 sequence (Q99705 whole entry): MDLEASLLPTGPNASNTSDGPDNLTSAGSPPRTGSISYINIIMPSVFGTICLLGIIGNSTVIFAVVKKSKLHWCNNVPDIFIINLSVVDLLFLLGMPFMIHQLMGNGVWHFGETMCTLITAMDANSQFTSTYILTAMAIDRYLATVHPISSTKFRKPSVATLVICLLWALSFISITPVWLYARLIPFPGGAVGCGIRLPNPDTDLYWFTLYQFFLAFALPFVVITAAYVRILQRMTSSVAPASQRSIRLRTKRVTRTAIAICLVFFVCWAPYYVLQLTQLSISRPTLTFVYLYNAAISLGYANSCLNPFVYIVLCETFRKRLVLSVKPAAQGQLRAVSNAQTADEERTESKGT

For `CSCC[C@@H]1NC(=O)[C@@H](NC(=O)[C@H](CCCNC(=N)N)NC(C)=O)CSSC[C@@H](C(N)=O)NC(=O)[C@@H]2CCCN2C(=O)[C@H](CCCNC(=N)N)NC(=O)[C@H](Cc2ccc(O)cc2)NC(=O)[C@H](C(C)C)NC(=O)[C@H](CCCNC(=N)N)NC(=O)[C@H](Cc2ccccc2)NC(=O)[C@H](CC(C)C)NC1=O` [SEQ. ID. NO. 20] (HELM PEPTIDE1{[ac].R.C.M.L.F.R.V.Y.R.P.C.[am]}$PEPTIDE1,PEPTIDE1,3:R3-12:R3$$$V2.0), the “Selectivity 2/1 (MCH-2R/MCH-1R IC50 binding ratio)” value (MCH-1R [1]) was 19, the IC50 (MCH-1R [2]) was 0.1 nM and the “Selectivity 2/1 (MCH-2R/MCH-1R EC50 activity ratio)” value (MCH-1R [3]; activity ratio) was 0.75. The EC50 (MCH-1R [3]; aequorin, 293AEQ17/MCH-1R cells, read-out: MCH-1R EC50) was 66 nM, the “MCH-1R Activation %” value (MCH-1R [3]; human MCH = 100, activation at 10 μM concentration) was 75% and the “MCH-2R Activation %” value (MCH-2R [4]) was 88%. For the same compound, the IC50 (MCH-2R [5]) was 1.9 nM.
